In one test the test system is C57BL/6J mice. Nature of the test: DSS-induced colitis mouse model, ileum histology. In kind it is in vivo. To be noted: for COLITIS SCORING mean ± SEM: group mean, n = 9, 3% DSS; for COLITIS SCORING mean ± SEM / COLITIS SCORING (sum) / Depletion of goblet cells score / Edema score / Erosion (epithelial cell damage) score / Leucocytes Infiltration score: Day 7; for COLITIS SCORING (sum) / Depletion of goblet cells score / Edema score / Erosion (epithelial cell damage) score / Leucocytes Infiltration score: ileum histology, individual mouse, 3% DSS. On the procedure:
The objective of this study was to determine the prophylactic efficacy of MRX029 in a DSS-induced colitis mouse model, upon repeated oral administration.
Tacrolimus was dosed at 1 mg/kg/day
Valproic acid was dosed at 200 mg/kg/day
PBS, YCFA and bacterial cultures were dosed at 200 μL/day
PBS, YCFA and live bacteria were be daily administered per os (PO) under a fixed volume of 200 μL/mouse
Tacrolimus will be daily administered subcutaneously (SC) under a volume of 10 mL/kg Valproic acid will be daily administered per os (PO) under a volume of 10 mL/kg
Each of sixty three, 6 week old healthy male C57BL/6J mice were obtained from Charles River (France) and individually identified and labelled with a specific code. Each treatment group (9 animals/group) were housed in three different cages.
Animals were dosed by extracting the dosing aliquot from the Hungate tube using a syringe and a 0.8×40 mm needle injected through the septum. The Hungate tube was mixed by inversion before the dosing aliquot was extracted. The first 50-100 μL through the gavage needle and each mouse was dose with 200 μL of culture by oral gavage
Days −7 to Day −1: Treatment with bacteria and reference substances according the treatment table above • Once daily oral administration of PBS, YCF A or Bacteria—200 μL per mouse • Once daily oral administration of Valproic acid at 200 mg/kg/day under a volume of 10 mL/kg
From Day O to Day+7: DSS administration • Administration of 3% DSS in the drinking water
From Day O to Day+6: Treatment with bacteria and reference substances • Once daily oral administration of PBS, YCFA or Bacteria—200 μL per mouse • Once daily oral administration of Valproic acid-200 mg/kg in sterile distilled water—10 mL/kg • Once daily SC administration of Tacrolimus—1 mg/kg in sterile 1% Tween80, 0.9% NaCl −10 mL/kg
Day +7: Sacrifice of all groups and tissue harvesting • Euthanasia of animals was performed under gas anesthesia (lsoflurane) followed by exsanguination and cervical dislocation. Euthanasia methods used are those recommended for mice and rats by European directive 20 I 0/63/CE and the procedure describing euthanasia methods was approved by IACUC. • Laparotomy and ileum harvesting, just upstream of the caecum (from 0.5 cm and on)—all tissue harvested from exactly the same area between all mice: • 1.5 cm swiss-rolled ileum was harvested for histology, the closest to the caecum
Ileum Swiss-rolls specimens were embedded in paraffin and sections of 5 μm thickness were cut and mounted on SuperFrost Ultra plus glass slides. HP (Hematoxylin-Phloxin) staining & AB-PAS (Alcian Blue-Periodic Acid Schiff) staining were performed to visualize histomorphologic changes. A scoring based on edema, erosion, loss of crypts/goblet cells and infiltrates was established on each animal, using the criteria in the following table: […]

Test [1] relates to histone deacetylase. Nature of the test: Histone deacetylase activity in whole HT-29 cells. To be noted: pure substance; for total HDAC activity inhibition: whole cells or lysate not distinguished. In kind it is cell-based. The protocol:
The cell line HT-29 was used because histone deacetylase is present.
Cell free supernatants of stationary phase bacterial cultures were isolated by centrifugation and filtering in a 0.22 uM filter. HT-29 cells were used 3 days' post confluence and stepped down in 1 mL DTS 24 hours prior to commencement of the experiment. The HT-29 cells were challenged with 10% cell free supernatant diluted in DTS and was is left to incubate for 48 hours. […] extraction kit and samples were snap frozen prior to HDAC activity measurement. HDAC activity was assessed fluorometrically using the Sigma Aldrich (UK) kit.
(§1) To investigate which metabolites were responsible for the strain-induced HDAC inhibition, different concentrations of hexanoic acid, valeric acid and sodium butyrate were measured for their HDAC inhibition on whole HT-29 cells and on HT-29 cell lysate.

The test system of another test is IL-6. The test is described as follows: IL-6 secretion by U373 glioblastoma astrocytoma cells (ELISA). Format: cell-based, human. To be noted: for LPS-induced secretion of IL-6 in U373 cells, SCFAs: LPS pre-treatment 1 h, increasing concentrations of pure fatty acid. The protocol: MG U373 is a human glioblastoma astrocytoma derived from a malignant tumour and were purchased from Sigma-Aldrich (cat n. 08061901-1VL). MG U373 human glioblastoma astrocytoma cells were grown in MEM (Sigma Aldrich, cat n. M-2279) supplemented with 10% FBS, 1% Pen Strep, 4 mM L-Glut, 1×MEM Non essential Amino Acid solution and 1× Sodium Pyruvate.
Once grown the MG U373 cells were plated on 24-well plate at 100,000 cells/well. The cells were treated with LPS (1 ug/mL) alone or with 10% of bacteria supernatant from MRx0029 for 24 h. A control was also performed where the cells were incubated in untreated media. Afterwards the cell free supernatants were collected, centrifuged at 10,000 g for 3 min at 4° C. IL-6 was measured using the Human IL-6 ELISA Kit from Peprotech (cat n.#900-K16) according to manufacturer instructions.
Human glioblastoma astrocytoma cell line (U373), were maintained in 25 ml MEME 4.5 g/L D-glucose supplemented with 10% heat-inactivated FBS, 4 mM L-Glutamine, 100 U/ml penicillin, 100 μg/ml streptomycin and 5 μg/ml plasmocin, 1% Non-Essential Amino Acids, 1% Sodium Pyruvate (referred to as full growth media).
Cells were plated in 24-well plates at a density of 100,000 cells/well in 1 ml of full growth media and left to rest at 37° C./5% CO2 for 72 h. On the day of the treatment, the media was removed from each well, cells were rinsed with 0.5 ml wash media (serum free MEME), 0.9 ml stimulation media (MEME media containing 2% FBS) containing 1 μg/ml LPS was added to the appropriate wells and incubated at 37° C. and 5% CO2. After 1 h pre-incubation, cells were removed from CO2 incubator and treated with 100 μl bacteria supernatant. YCFA+ media was used as control. […]
Secretion of IL-6 was analysed using hIL-6 Standard ELISA Kits, according to the manufacturer's protocol in the cell-free supernatants from U373 cells treated as described above. Samples were measured at 405 nm with correction wavelength set at 655 nm on a microplate reader (iMark, Bio-Rad). Raw data were plotted and analysed using GraphPad Prism 7 software. […]
(In general: An ELISA detects its analyte on a solid surface through an enzyme-linked reagent.)

In test [2] the test system is histone deacetylase. Nature of the test: HDAC inhibition on HT-29 cell lysate. Format: biochemical. To be noted: pure substance, different concentrations. The protocol: as §1

Values joined by “and” are separate entries in the source; they are usually repeats but may differ in a detail not shown here. Equal entries are not always repeated.

For the compound `C=CC[C@@H]1/C=C(\C)C[C@H](C)C[C@H](OC)[C@H]2O[C@@](O)(C(=O)C(=O)N3CCCC[C@H]3C(=O)O[C@H](/C(C)=C/[C@@H]3CC[C@@H](O)[C@H](OC)C3)[C@H](C)[C@@H](O)CC1=O)[C@H](C)C[C@@H]2OC` [Tacrolimus], the “leukocyte infiltration in the ileum, group result” value with C57BL/6J mice (DSS animals versus vehicle DSS groups) is reported as “reduced leukocyte infiltration comparable to controls”. Also, in the test with C57BL/6J mice, the “COLITIS SCORING mean ± SEM” value was 0.44; the “COLITIS SCORING (sum)” value was 0 (6×) and 2 and 1 (2×); the “Depletion of goblet cells score” value is on record as 0; the Edema score is on record as 0. Moreover, in the test on C57BL/6J mice, the “Erosion (epithelial cell damage) score” value stood at 0; the “Leucocytes Infiltration score” value is 0 (6×) and 2 and 1 (2×).

In the case of `CCCC(CCC)C(=O)O` [Valproic acid, Valproic Acid], in the test with C57BL/6J mice, the “COLITIS SCORING mean ± SEM” value is on record as 0.67; the “COLITIS SCORING (sum)” value is 2 (2×) and 1 (2×) and 0 (5×); the “Depletion of goblet cells score” value is 0; the Edema score came out at 0. In the test on C57BL/6J mice, the “Erosion (epithelial cell damage) score” value stood at 0; the “Leucocytes Infiltration score” value was 2 (2×) and 1 (2×) and 0 (5×).

With `CCCCCC(=O)O` [hexanoic acid], in the test with histone deacetylase [1], the “total HDAC activity inhibition” value is “did show significant inhibitory activity”. Besides, in the test with IL-6, the “LPS-induced secretion of IL-6 in U373 cells, SCFAs” value is “did not inhibit IL-6 secretion”.

Turning to `CCCC(=O)[O-].[Na+]` [sodium butyrate], the “HDAC inhibition on HT-29 cell lysate” value in the test with histone deacetylase [2] is on record as “significant (P<0.05) inhibition of HDAC activity”. The “HDAC inhibition on whole HT-29 cells” value in the test with histone deacetylase [1] (different concentrations) is reported as “significant (P<0.05) inhibition of HDAC activity”. The “total HDAC activity inhibition” value with histone deacetylase [1] is recorded as “significant HDAC inhibition”. Also, in the test with IL-6, the “LPS-induced secretion of IL-6 in U373 cells, SCFAs” value is “inhibited LPS-induced secretion of IL-6 in U373 cells in a concentration-dependent manner”. In the test with IL-6 (absence of LPS), the “basal IL-6 secretion in U373 cells” value is given as “decreased the basal level of IL-6”.

As to `CCCCC(=O)O` [valeric acid], the “total HDAC activity inhibition” value in the test on histone deacetylase [1] is “significant HDAC inhibition”; in the test on histone deacetylase [1] (listed as Valeric acid) it was “inhibited total HDAC activity”.

The values above are taken from US20210275605A1, “COMPOSITIONS COMPRISING BACTERIAL STRAINS” (4D Pharma Research Limited, priority 2018, published 2021).
